# Experimental data published in patent publication US20080008760A1, “Functionalized carbon nanotubes, a process for preparing the same and their use in medicinal chemistry” (priority 2003, published 2008).
# Assays:
# [1] = system: Murine 3T3 cells (ATCC CCL-92); experiment: Fluorescent and confocal microscopy: penetration of FITC functionalized nanotubes into cells; type: cell-based; details: 1 μM, 5 μM and 10 μM; FIG. 3: 40 minutes incubation
# [2] = system: Murine 3T3 cells (ATCC CCL-92); experiment: Cytofluorometry: penetration of FITC functionalized nanotube into cells; type: cell-based; details: 1 μM, 5 μM and 10 μM, 1 hour
structure (smiles),measurement,setting,value
O=C(O)c1cc(NC(=S)NCCOCCOCCN2CCCC2)ccc1-c1c2ccc(=O)cc-2oc2cc(O)ccc12 [formula (L)],"penetration into 3T3 cells (fluorescence microscopy, FIG. 3)",[1],have penetrated into 3T3 cells
same,penetration into 3T3 cells (cytofluorometry),[2],readily penetrate into 3T3 cells
